Assay results taken from US20070077215A1, “Administration of phenylfurymethylthiazolidine-2,4-dione or phenylthienymethylthiazolidine-2,4-dione compounds for promoting and/or inducing and/or stimulating the pigmentation of keratinous substances and/or limiting their depigmentation and/or their whitening” (L'OREAL, priority 2005, published 2007).
pIC50: −log10 of the molar value.

Biological target: T1, Type-1 15-PGDH (Homo sapiens, UniProt P15428)
T1 construct: made in house
T1 sequence (P15428 1-266): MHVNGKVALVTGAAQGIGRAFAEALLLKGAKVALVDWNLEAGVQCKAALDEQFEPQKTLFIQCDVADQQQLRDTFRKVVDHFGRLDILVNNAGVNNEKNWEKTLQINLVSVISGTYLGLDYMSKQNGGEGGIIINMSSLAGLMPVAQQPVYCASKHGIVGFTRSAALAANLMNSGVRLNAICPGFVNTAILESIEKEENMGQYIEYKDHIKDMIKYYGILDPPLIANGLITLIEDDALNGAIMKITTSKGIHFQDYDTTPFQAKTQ
Experiment: Test on type-1 15-PGDH (spectrophotometric enzyme inhibition)
Assay type: biochemical
Conditions: Tris buffer pH 7.4, 1.5 mM β-NAD, 50 μM prostaglandin E2, 37° C., 340 nm; read-out: IC50dh (concentration that reduces the enzymatic activity of 15-PGDH by 50%)
Description: The enzyme 15-PGDH is obtained as disclosed in FR 02/05067, assigned to the assignee hereof, in suspension in a medium adjusted to a concentration of 0.3 mg/ml and then blocked at −80° C. For the requirements of the test, this suspension is defrosted and stored in ice.
Furthermore, a 100 mM, pH=7.4, Tris buffer comprising 0.1 mM of dithiothreitol (D5545, Sigma-Aldrich, L'isle D'Abeau Chesne, BP 701, 38297, Saint Quentin Fallavier) 1.5 mM of β-NAD (N6522, Sigma-Aldrich, L'isle D'Abeau Chesne, BP 701, 38297, Saint Quentin Fallavier) and 50 μM of prostaglandin E2 (P4172, Sigma-Aldrich, L'isle D'Abeau Chesne, BP 701, 38297, Saint Quentin Fallavier) is prepared.
0.965 ml of this buffer (adjusted beforehand to 37° C.) is introduced into the cell of a spectrophotometer (Perkin-Elmer, Lambda 2) thermostatically controlled at 37° C., the measuring wavelength of which is adjusted to 340 nm. 0.035 ml of enzymatic suspension at 37° C. is introduced into the cell concomitantly with the recording (corresponding to an increase in the optical density at 340 nm). The maximum reaction rate is recorded.
The test values (comprising compound 1) are compared with the control value (without compound 1); the results shown represent either the percentage of inhibition of the enzymatic activity of 15-PGDH for a given concentration of compound of formula (I) or the concentration at which compound 1 reduces the enzymatic activity of 15-PGDH by 50%, namely IC50dh.

pIC50	Compound
5.09	O=C1NC(=O)C(Cc2ccc(-c3cccc(C(F)(F)F)c3)o2)S1 (stereo not drawn) [Compound 2, 5-[5-(3-(trifluoromethyl)phenyl)fur-2-ylmethyl]-1,3-thiazolidine-2,4-dione]
5.28	O=C1NC(=O)C(Cc2ccc(-c3cccc(Cl)c3)o2)S1 (stereo not drawn) [Compound 3, 5-{[5-(3-chlorophenyl)-2-furyl]methyl}-1,3-thiazolidine-2,4-dione]
4.75	O=C1NC(=O)C(Cc2ccc(-c3ccc(C(F)(F)F)cc3)s2)S1 (stereo not drawn) [Compound 5, 5-({5-[4-(trifluoromethyl)phenyl]thien-2-yl}methyl)-1,3-thiazolidine-2,4-dione]

The next lines start with the compound.

Compound	pIC50
O=C1N=C(O)C(Cc2ccc(-c3ccc(C(=O)O)cc3)o2)S1 (stereo not drawn) [Compound 1, 4-{5-[(2,4-dioxo-1,3-thiazolidin-5-yl)methyl]-2-furyl}benzoic acid]	5.52
CCOC(=O)c1cccc(-c2ccc(CC3SC(=O)NC3=O)o2)c1 (stereo not drawn) [Compound 4, Ethyl 3-{5-[(2,4-dioxo-1,3-thiazolidin-5-yl)methyl]-2-furyl}benzoate]	5.34
O=C1NC(=O)C(Cc2ccc(-c3cccc(CO)c3)s2)S1 (stereo not drawn) [Compound 7, 5-({5-[3-(Hydroxymethyl)phenyl]-2-thienyl}methyl)-1,3-thiazolidine-2,4-dione]	4.42
